Data reported in patent US20220306640A1, “HYDANTOIN DERIVATIVE” (ONO PHARMACEUTICAL CO., LTD., priority 2019, published 2022).

Biological target: T1, DDR1 phosphorylation in kidney (Mus musculus, UniProt Q03146)
T1 construct: from tissue; host or cells: kidney of C57BL/6J mice (UUO model)
T1 sequence (Q03146 20-911): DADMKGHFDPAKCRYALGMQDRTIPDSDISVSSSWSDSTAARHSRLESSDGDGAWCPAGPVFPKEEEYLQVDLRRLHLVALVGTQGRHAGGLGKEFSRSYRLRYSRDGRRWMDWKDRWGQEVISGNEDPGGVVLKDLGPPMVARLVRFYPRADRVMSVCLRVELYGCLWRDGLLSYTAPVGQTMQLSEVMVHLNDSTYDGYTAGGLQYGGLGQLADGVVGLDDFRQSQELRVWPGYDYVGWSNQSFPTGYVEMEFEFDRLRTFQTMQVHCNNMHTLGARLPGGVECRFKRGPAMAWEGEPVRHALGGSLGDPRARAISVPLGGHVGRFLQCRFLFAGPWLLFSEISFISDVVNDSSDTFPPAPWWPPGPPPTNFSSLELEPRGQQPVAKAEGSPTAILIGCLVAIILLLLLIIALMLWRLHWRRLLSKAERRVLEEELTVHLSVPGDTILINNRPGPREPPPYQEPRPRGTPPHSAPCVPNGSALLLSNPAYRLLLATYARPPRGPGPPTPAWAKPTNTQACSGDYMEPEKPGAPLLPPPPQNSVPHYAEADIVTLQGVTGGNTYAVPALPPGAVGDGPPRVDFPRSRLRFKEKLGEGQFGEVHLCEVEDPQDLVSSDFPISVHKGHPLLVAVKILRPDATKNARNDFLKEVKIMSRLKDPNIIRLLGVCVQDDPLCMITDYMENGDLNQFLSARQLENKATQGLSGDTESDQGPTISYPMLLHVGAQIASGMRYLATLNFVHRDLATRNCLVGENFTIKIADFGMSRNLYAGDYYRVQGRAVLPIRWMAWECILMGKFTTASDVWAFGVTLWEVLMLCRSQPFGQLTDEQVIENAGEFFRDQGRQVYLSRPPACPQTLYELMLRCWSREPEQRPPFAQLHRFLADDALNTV
Assay: Measurement of DDR1 phosphorylation suppression rate by using UUO (unilateral ureteral obstruction) model (in vivo test)
Set-up: species or system C57BL/6J mice
Conditions: UUO mice, dose of 10 mg/kg, oral single dose, kidney 8 h after dosing, relative to the difference between the untreated group and control group
Protocol: Biological Example 4: Measurement of DDR1 phosphorylation suppression rate by using UUO (unilateral ureteral obstruction) model (in vivo test).
Species & Strain: C57BL/6J mice
Mice were randomly assigned to respective groups based on the animal's body weight.
Surgery was performed in male C57BL/6J mice on Day 0. With the mice under anesthesia, operation area was disinfected with 75% alcohol after shaving. Mice in UUO group were exposed left ureter through a small incision on the left side of the abdomen and ligated with 3-0 silk at two locations about 0.5 cm below the renal hilum. Normal control mice were had their ureters manipulated but not ligated. Zoletil combined with Xylazine (20:1, v:v) were used in this study, the final dose of Zoletil was 25 mg/kg.
Route: oral administration
Dosage: 1, 3 and 10 mg/kg
Body weights of all animals were measured prior surgery and prior dosing. Clinical observations of all animals were monitored and recorded daily throughout the study. […]
On Day 3, all animals were euthanized with carbon dioxide. […] Then the samples were analyzed by Elisa.
DDR1 and p-DDR1 levels in ipsilateral kidney samples were analyzed by Elisa method. […]
All statistical tests were conducted, and the level of significance was set at 5% or P<0.05. The group means and standard deviation were calculated for all measurement parameters as study designed. […]

DDR1 phosphorylation suppression: 50%
Compound: Cc1cc(Oc2ccnc(N)n2)ccc1N1C(=O)CN(c2ccc(F)c(OC(F)(F)F)c2)C1=O [Example 3(110), 3-{4-[(2-amino-4-pyrimidinyl)oxy]-2-methylphenyl}-1-[4-fluoro-3-(trifluoromethoxy)phenyl]-2,4-imidazolidinedione]
